According to patent US20240067651A1 (Biohaven Therapeutics Ltd., priority 2019, published 2024):
Where two headings read alike, the source gives them in different places.

Experiments:
[1] = Stability in Simulated Intestinal Fluid (SIF); type: in vitro ADME; set-up: key: % parent compound remaining relative to 0-minute sample
How it was run: (§1)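 Each compound is spiked to a final 2 μg/mL into SGF with pepsin (pH 1.2) and into SIF with pancreatin (pH 6.8). Samples shake at 37° C, aliquots are taken between 0 and 60 minutes, precipitated with acetonitrile and analysed by LC-MS/MS. Degradation half-life is derived from the natural-log plot where time points allow.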

[2] = Stability in Simulated Gastric Fluid (SGF); type: in vitro ADME; set-up: key: % parent compound remaining relative to 0-minute sample
How it was run: as §1

[3] = test system: Caco-2 monolayer; test: Caco-2 Permeability Assay; type: in vitro ADME, human
How it was run: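 Bidirectional transport at 37 °C for 90 min, 10 μM donor concentration, with or without Pgp inhibitor, across 21-day Caco-2 monolayers with TEER >600 […] in HEPES-buffered HBSS, pH 7.4. LC-MS/MS of donor and receiver samples gives Papp, B→A/A→B efflux ratio and mass recovery.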

[4] = Plasma Stability; type: in vitro ADME, human
How it was run: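 Parent compound quantified by LC-MS/MS after acetonitrile precipitation, reported as percent of control remaining (triplicate). Incubation: 1 hour, 37° C, fresh human plasma, compound at 1 μM.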

[5] = % @ 1 h (remaining) in simulated intestinal fluid
[6] = % @ 1 h (remaining) in simulated gastric fluid
[7] = % @ 1 h (remaining) in human plasma
[8] = Caco-2 monolayer, the 15th table
[9] = % remaining at 1 h in human plasma, the 15th table
[10] = bare number, unit or time not given, the 15th table Examples 204-207
[11] = simulated intestinal fluid, remaining at 1 h
[12] = simulated gastric fluid, remaining at 1 h

CC(C)OCCn1c(=S)[nH]c(=O)c2c1ccn2COC(=O)[C@@H]1CCN(C(=O)OC(C)(C)C)C1 [Example 129, 1-tert-butyl 3-{4-oxo-1-[2-(propan-2-yloxy)ethyl]-2-sulfanylidene-1H,2H,3H,4H,5H-pyrrolo[3,2-d]pyrimidin-5-yl} methyl (3R)-pyrrolidine-1,3-dicarboxylate]
SIF ([1]; % remaining at 1 h in simulated intestinal fluid): 21% remaining | SGF ([2]; % remaining at 1 h in simulated gastric fluid): 84% remaining | Caco-2 Papp ([3]; Caco-2 monolayer): 12.1 ×10⁻⁶ cm/s | human Plasma stability ([4]; % remaining at 1 h in human plasma): 1% remaining

CCCCN(C)C(=O)OCSc1nc(=O)c2c(ccn2COC(=O)N(C)CCCC)n1CCOC(C)C [Example 162, {2-[{{[butyl(methyl)carba-moyl]oxy}methyl)sulfanyl]-4-oxo-1-[2-(propan-2-yloxy)ethyl]-1H,4H,5H-pyrrolo[3,2-d]pyrimidin-5-yl}methyl N-butyl-N-methylcarbamate]
SIF [1, 5]: 96% @ 1 h | SGF [2, 6]: 98% @ 1 h | Caco-2 Papp ([3]; Caco-2 monolayer): 28.7 ×10⁻⁶ cm/s | human Plasma stability [4, 7]: 96% @ 1 h

CCN(C)C(=O)OCSc1nc(=O)c2c(ccn2COC(=O)N(C)CC)n1CCOC(C)C.O=C(O)C(F)(F)F [Example 169, trifluoroacetic acid {2-[{{[ethyl(methyl)carba-moyl]oxy}methyl)sulfanyl]-4-oxo-1-[2-(propan-2-yloxy)ethyl]-1H,4H,5H-pyrrolo[3,2-d]pyrimidin-5-yl}methyl N-ethyl-N-methylcarbamate]
SIF [1, 5]: 81% @ 1 h | SGF [2, 6]: 99% @ 1 h | Caco-2 Papp ([3]; Caco-2 monolayer): 10.9 ×10⁻⁶ cm/s | human Plasma stability [4, 7]: 89% @ 1 h

CC(C)OCCn1c(SCOC(=O)N(C)Cc2ccccc2)nc(=O)c2c1ccn2COC(=O)N(C)Cc1ccccc1.O=C(O)C(F)(F)F [Example 174, trifluoroacetic acid {2-[{{[benzyl(methyl)carba-moyl]oxy}methyl)sulfanyl]-4-oxo-1-[2-(propan-2-yloxy)ethyl]-1H,4H,5H-pyrrolo[3,2-d]pyrimidin-5-yl}methyl N-benzyl-N-methylcarbamate]
SIF [1, 5]: 99% @ 1 h | SGF [2, 6]: 99% @ 1 h | Caco-2 Papp ([3]; Caco-2 monolayer): 30.4 ×10⁻⁶ cm/s | human Plasma stability [4, 7]: 99% @ 1 h

CC(C)OCCn1c(=S)[nH]c(=O)c2c1ccn2CO [Example 197]
SIF ([1]; % remaining at 1 h in simulated intestinal fluid, the 15th table): 55% remaining | SGF ([2]; % remaining at 1 h in simulated gastric fluid, the 15th table): 98% remaining | Caco-2 Papp (nm/s) [3, 8]: unstable | human Plasma stability [4, 9]: 86% remaining

CCCCCCCCOC(=O)OCSc1nc(=O)c2c(ccn2COC(=O)OCCCCCCCC)n1CCOC(C)C [Example 207, octyl {2-[{{[(octyloxy)carbon-yl]oxy}methyl)sulfanyl]-4-oxo-1-[2-(propan-2-yloxy)ethyl]-1H,4H,5H-pyrrolo[3,2-d]pyrimidin-5-yl} methyl carbonate]
SIF [1, 10]: 29 | SGF [2, 10]: 90 | Caco-2 Papp [3, 8]: 0.267 ×10⁻⁶ cm/s | human Plasma stability [4, 9]: 92% remaining

COc1ccc(N(C)C(=O)OCSc2nc(=O)c3[nH]ccc3n2CCOC(C)C)cc1 [Example 254]
SIF ([1]; simulated intestinal fluid, at 1 h): 94% remaining | SGF ([2]; simulated gastric fluid, at 1 h): 95% remaining | Caco-2 Papp ([3]; Caco-2 monolayer): 8.53 ×10⁻⁶ cm/s | human Plasma stability ([4]; human plasma, at 1 h): 88% remaining

CC(C)OCCn1c(SCOC(=O)[C@H](N)Cc2ccccc2)nc(=O)c2c1ccn2COC(=O)[C@H](N)Cc1ccccc1.O=C(O)C(F)(F)F.O=C(O)C(F)(F)F [Example 312, bis(trifluoroacetic acid) {[5-({[(2R)-2-amino-3-phenylpropanoyl]oxy}methyl)-4-oxo-1-[2-(propan-2-yloxy)ethyl]-1H,4H,5H-pyrrolo[3,2-d]pyrimidin-2-yl]sulfanyl} methyl (2R)-2-amino-3-phenylpropanoate]
SIF ([1]; % remaining @ 1 h): 29% @ 1 h | SGF ([2]; % remaining @ 1 h): 99% @ 1 h | Caco-2 Papp ([3]; Caco-2): >0.0994 ×10⁻⁶ cm/s | human Plasma stability ([4]; % remaining @ 1 h): 24% @ 1 h

CC(C)C[C@H](NC(=O)OC(C)(C)C)C(=O)OCSc1nc(=O)c2c(ccn2COC(=O)[C@H](CC(C)C)NC(=O)OC(C)(C)C)n1CCOC(C)C [Example 315, {[5-({[(2S)-2-{[ (tert-butoxy)carbonyl]amino}-4-methylpentanoyl]oxy}methyl)-4-oxo-1-[2-(propan-2-yloxy)ethyl]-1H,4H,5H-pyrrolo[3,2-d]pyrimidin-2-yl]sulfanyl} methyl (2S)-2-{[(tert-butoxy)carbonyl]amino}-4-methylpentanoate]
SIF ([1]; % remaining @ 1 h): 5%@ 1 h | SGF ([2]; % remaining @ 1 h): 78%@ 1 h | Caco-2 Papp ([3]; Caco-2): 14.1 ×10⁻⁶ cm/s | human Plasma stability ([4]; % remaining @ 1 h): 7%@ 1 h

CC(C)OCCn1c(SCOC(=O)CCCCOC(=O)CNC(=O)OC(C)(C)C)nc(=O)c2c1ccn2COC(=O)CCCCOC(=O)CNC(=O)OC(C)(C)C [Example 329, ({5-[{{5-[(2-{[(tert-butoxy)carbonyl]amino}acetyl)oxy]pentanoyl}oxy)methyl]-4-oxo-1-[2-(propan-2-yloxy)ethyl]-1H,4H,5H-pyrrolo[3,2-d]pyrimidin-2-yl}sulfanyl)methyl 5-[(2-{[(tert-butoxy)carbonyl]amino}acetyl)oxy] pentanoate]
SIF ([1]; % remaining @ 1 h): 35% @ 1 h | SGF ([2]; % remaining @ 1 h): 95% @ 1 h | Caco-2 Papp [3]: 5.96 ×10⁻⁶ cm/s | human Plasma stability ([4]; % remaining @ 1 h): 1% @ 1 h

CC(C)C[C@H](NC(=O)OC(C)(C)C)C(=O)OCCCCC(=O)OCn1c(=O)c2c(ccn2COC(=O)CCCCOC(=O)[C@H](CC(C)C)NC(=O)OC(C)(C)C)n(CCOC(C)C)c1=S [Example 344, 5-[(3-{[(5-{[(2S)-2-{[(tert-butoxy)carbonyl]amino}-4-methylpentanoyl]oxy}penta-noyl)oxy]methyl}-4-oxo-1-[2-(propan-2-yloxy)ethyl]-2-sulfanylidene-1H,2H,3H,4H,5H-pyrrolo[3,2-d]pyrimidin-5-yl)methoxy]-5-oxopentyl (2S)-2-{[(tert-butoxy)carbonyl]amino}-4-methylpentanoate]
SIF ([1]; % remaining @ 1 h): 26% remaining | SGF ([2]; % remaining @ 1 h): 100% remaining | Caco-2 Papp ([3]; Caco-2): 2.46 ×10⁻⁶ cm/s | human Plasma stability ([4]; % remaining @ 1 h): 28% remaining

CC(C)C[C@@H](NC(=O)OC(C)(C)C)C(=O)OCCCCC(=O)OCn1c(=O)c2c(ccn2COC(=O)CCCCOC(=O)[C@@H](CC(C)C)NC(=O)OC(C)(C)C)n(CCOC(C)C)c1=S [Example 349, 5-[(3-{[(5-{[(2R)-2-{[(tert-butoxy)carbonyl]amino}-4-methylpentanoyl]oxy}penta-noyl)oxy]methyl}-4-oxo-1-[2-(propan-2-yloxy)ethyl]-2-sulfanylidene-1H,2H,3H,4H,5H-pyrrolo[3,2-d]pyrimidin-5-yl)methoxy]-5-oxopentyl (2R)-2-{[(tert-butoxy)carbonyl]amino}-4-methylpentanoate]
SIF [1, 11]: 8% remaining | SGF [2, 12]: 99% remaining | Caco-2 Papp ([3]; Caco-2 monolayer): 4.99 ×10⁻⁶ cm/s | human Plasma stability ([4]; human plasma, remaining at 1 h): 6% remaining

CC(C)OCCn1c(SCOC(=O)CCCOC(=O)[C@H](NC(=O)OC(C)(C)C)C(C)C)nc(=O)c2c1ccn2COC(=O)CCCOC(=O)[C@H](NC(=O)OC(C)(C)C)C(C)C [Example 357, 4-{[2-({[(4-{[(2R)-2-{[(tert-butoxy)carbonyl]amino}-3-methylbutanoyl]oxy}buta-noyl)oxy]methyl}sulfanyl)-4-oxo-1-[2-(propan-2-yloxy)ethyl]-1H,4H,5H-pyrrolo[3,2-d]pyrimidin-5-yl]methoxy}-4-oxobutyl (2R)-2-{[(tert-butoxy)carbonyl]amino}-3-methylbutanoate]
SIF [1, 11]: 14% remaining | SGF [2, 12]: 98% remaining | Caco-2 Papp ([3]; Caco-2 monolayer): 1.5 ×10⁻⁶ cm/s | human Plasma stability ([4]; human plasma, remaining at 1 h): 5% remaining

CC(C)OCCn1c(=S)n(COC(=O)CCCOC(=O)[C@H](NC(=O)OC(C)(C)C)C(C)C)c(=O)c2c1ccn2COC(=O)CCCOC(=O)[C@H](NC(=O)OC(C)(C)C)C(C)C [Example 359, (((1-(2-isopropoxyethyl)-4-oxo-2-thioxo-1,4-dihydro-3H-pyrrolo[3,2-d]pyrimidine-3,5(2H)-diyl)bis(methylene))bis(oxy))bis(4-oxobutane-4,1-diyl) (2R,2′R)-bis(2-((tert-butoxycarbonyl)amino)-3-methylbutanoate)]
SIF [1, 11]: 41% remaining | SGF [2, 12]: 99% remaining | Caco-2 Papp ([3]; Caco-2 monolayer): <0.297 ×10⁻⁶ cm/s | human Plasma stability ([4]; human plasma, remaining at 1 h): 8% remaining

CC(C)OCCn1c(=S)n(COC(=O)CCCOC(=O)[C@H](N)C(C)C)c(=O)c2c1ccn2COC(=O)CCCOC(=O)[C@H](N)C(C)C.O=C(O)C(F)(F)F.O=C(O)C(F)(F)F [Example 360, bis(trifluoroacetic acid) 4-[(3-{[(4-{[(2R)-2-amino-3-methylbutanoyl]oxy}buta-noyl)oxy]methyl}-4-oxo-1-[2-(propan-2-yloxy)ethyl]-2-sulfanylidene-1H,2H,3H,4H,5H-pyrrolo[3,2-d]pyrimidin-5-yl)methoxy]-4-oxobutyl (2R)-2-amino-3-methylbutanoate]
SIF [1, 11]: 56% remaining | SGF [2, 12]: 46% remaining | Caco-2 Papp ([3]; Caco-2 monolayer): <0.628 ×10⁻⁶ cm/s | human Plasma stability ([4]; human plasma, remaining at 1 h): 3% remaining
